Measured values as given in ChEMBL document CHEMBL1201862, “PubChem BioAssay data set” (2004).
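Test compounds were applied to cells in 96-well plates for 48 hours at 5 doses. GI50 is the concentration that inhibits growth by half.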 The source made the active and inactive calls. Rule as the data show it: active = GI50 up to about 1.1 µM and inactive = higher.

What was measured:
Test in all cases: growth of human tumour cells (NCI), 48 h
CCRF-CEM = tested on: CCRF-CEM
M14 = tested on: M14
OVCAR-8 = tested on: OVCAR-8
SF-539 = tested on: SF-539
RXF 393 = tested on: RXF 393
UO-31 = tested on: UO-31
SK-MEL-28 = tested on: SK-MEL-28
K562 = tested on: K562
A549 = tested on: A549
IGROV-1 = tested on: IGROV-1
Malme-3M = tested on: Malme-3M
HOP-62 = tested on: HOP-62
SN12C = tested on: SN12C
SNB-75 = tested on: SNB-75
T47D = tested on: T47D
DU-145 = tested on: DU-145
SK-MEL-5 = tested on: SK-MEL-5
NCI/ADR-RES = tested on: NCI/ADR-RES
RPMI-8226 = tested on: RPMI-8226
SF-268 = tested on: SF-268
MOLT-4 = tested on: MOLT-4
KM12 = tested on: KM12
A498 = tested on: A498
NCI-H23 = tested on: NCI-H23
CAKI-1 = tested on: CAKI-1
LOX IMVI = tested on: LOX IMVI
COLO 205 = tested on: COLO 205
HT-29 = tested on: HT-29
UACC-62 = tested on: UACC-62
SF-295 = tested on: SF-295
ACHN = tested on: ACHN
SNB-19 = tested on: SNB-19
OVCAR-3 = tested on: OVCAR-3
BT-549 = tested on: BT-549
NCI-H226 = tested on: NCI-H226
SR = tested on: SR
MCF7 = tested on: MCF7
HCT-15 = tested on: HCT-15
HOP-92 = tested on: HOP-92
NCI-H522 = tested on: NCI-H522
OVCAR-4 = tested on: OVCAR-4
786-0 = tested on: 786-0
HCT-116 = tested on: HCT-116
MDA-MB-435 = tested on: MDA-MB-435
PC-3 = tested on: PC-3
EKVX = tested on: EKVX
Hs-578T = tested on: Hs-578T
HL-60 = tested on: HL-60
MDA-N = tested on: MDA-N
SK-OV-3 = tested on: SK-OV-3
SW-620 = tested on: SW-620
SK-MEL-2 = tested on: SK-MEL-2

SMILES: CCC(=O)Nc1ccc(/N=C/c2cccc(Oc3ccccc3)c2)cc1
- GI50 (CCRF-CEM): 12.6 µM (inactive)
- GI50 (M14): 46.6 µM (inactive)
- GI50 (OVCAR-8): 22.3 µM (inactive)
- GI50 (SF-539): 16.4 µM (inactive)
- GI50 (RXF 393): 50.9 µM (inactive)
- GI50 (UO-31): 70.5 µM (inactive)
- GI50 (SK-MEL-28): 86.9 µM (inactive)
- GI50 (K562): 24.4 µM (inactive)
- GI50 (A549): > 100 µM (inactive)
- GI50 (IGROV-1): 63.4 µM (inactive)
- GI50 (Malme-3M): > 100 µM (inactive)
- GI50 (HOP-62): 37.2 µM (inactive)
- GI50 (SN12C): > 100 µM (inactive)
- GI50 (SNB-75): > 100 µM (inactive)
- GI50 (T47D): 91 µM (inactive)
- GI50 (DU-145): 46.2 µM (inactive)
- GI50 (SK-MEL-5): 33 µM (inactive)
- GI50 (NCI/ADR-RES): 42.3 µM (inactive)
- GI50 (RPMI-8226): 21.8 µM (inactive)
- GI50 (SF-268): 42.1 µM (inactive)
- GI50 (MOLT-4): 23.9 µM (inactive)
- GI50 (KM12): > 100 µM (inactive)
- GI50 (A498): > 100 µM (inactive)
- GI50 (NCI-H23): > 100 µM (inactive)
- GI50 (CAKI-1): > 100 µM (inactive)
- GI50 (LOX IMVI): 29.6 µM (inactive)
- GI50 (COLO 205): 44.6 µM (inactive)
- GI50 (HT-29): 49.2 µM (inactive)
- GI50 (UACC-62): 95.7 µM (inactive)
- GI50 (SF-295): > 100 µM (inactive)
- GI50 (ACHN): > 100 µM (inactive)
- GI50 (SNB-19): > 100 µM (inactive)
- GI50 (OVCAR-3): 63.8 µM (inactive)
- GI50 (BT-549): > 100 µM (inactive)
- GI50 (NCI-H226): 18.2 µM (inactive)
- GI50 (SR): 16.2 µM (inactive)
- GI50 (MCF7): 44.1 µM (inactive)
- GI50 (HCT-15): > 100 µM
- GI50 (HOP-92): 85.3 µM (inactive)
- GI50 (NCI-H522): > 100 µM (inactive)
- GI50 (OVCAR-4): 55.3 µM (inactive)
- GI50 (786-0): 42.4 µM (inactive)
- GI50 (HCT-116): 39.8 µM (inactive)
- GI50 (MDA-MB-435): 47.3 µM (inactive)
- GI50 (PC-3): 64.4 µM (inactive)
- GI50 (EKVX): 65.5 µM (inactive)
- GI50 (Hs-578T): > 100 µM (inactive)
- GI50 (HL-60): 26.7 µM (inactive)
- GI50 (MDA-N): 40.1 µM (inactive)
- GI50 (SK-OV-3): > 100 µM (inactive)
- GI50 (SW-620): 37 µM (inactive)
- GI50 (SK-MEL-2): > 100 µM (inactive)
